Data reported in PubChem BioAssay AID192 (DTP/NCI, 2004).
Inconclusive results and toxic doses are left out. How the source made its calls: active means survival T/C of 150% or more; inactive means T/C below 125% in these data. Peptide text beside a SMILES is read from it.

System: BDF1 mice, B16 melanoma ip, median survival T/C
Assay: NCI In Vivo Anticancer Drug Screen. Data for tumor model B16 Melanoma (intraperitoneal) in B6D2F1 (BDF1) mice
Details: endpoint: median survival time, higher = longer survival
How it was run: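 Each result divides a survival or tumor-size measurement in the compound-treated group by the same measurement in the vehicle group.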

[1] = dose: 200.0 mg/kg/injection, schedule: Q01DX009 (ip), vehicle: Klucel (hydroxypropylcellulose) (HPC)
[2] = dose: 12.0 mg/kg/injection, schedule: Q01DX009 (ip), vehicle: Klucel (hydroxypropylcellulose) (HPC)
[3] = dose: 12.5 mg/kg/injection, schedule: Q01DX009 (ip), vehicle: Klucel (hydroxypropylcellulose) (HPC)
[4] = dose: 25.0 mg/kg/injection, schedule: Q01DX009 (ip), vehicle: Klucel (hydroxypropylcellulose) (HPC)
[5] = dose: 6.25 mg/kg/injection, schedule: Q01DX009 (ip), vehicle: saline
[6] = dose: 12.5 mg/kg/injection, schedule: Q01DX009 (ip), vehicle: saline
[7] = dose: 25.0 mg/kg/injection, schedule: Q01DX009 (ip), vehicle: saline
[8] = dose: 50.0 mg/kg/injection, schedule: Q01DX009 (ip), vehicle: saline
[9] = dose: 50.0 mg/kg/injection, schedule: Q01DX009 (ip), vehicle: saline with Tween-80
[10] = dose: 100.0 mg/kg/injection, schedule: Q01DX009 (ip), vehicle: Klucel (hydroxypropylcellulose) (HPC)
[11] = dose: 400.0 mg/kg/injection, schedule: Q01DX009 (ip), vehicle: Klucel (hydroxypropylcellulose) (HPC)
[12] = dose: 100.0 mg/kg/injection, schedule: Q01DX009 (ip), vehicle: saline with Tween-80
[13] = dose: 200.0 mg/kg/injection, schedule: Q01DX009 (ip), vehicle: saline with Tween-80
[14] = dose: 50.0 mg/kg/injection, schedule: Q01DX009 (ip), vehicle: Klucel (hydroxypropylcellulose) (HPC)
[15] = dose: 100.0 mg/kg/injection, schedule: Q04DX003 (ip), vehicle: Klucel (hydroxypropylcellulose) (HPC)
[16] = dose: 200.0 mg/kg/injection, schedule: Q04DX003 (ip), vehicle: Klucel (hydroxypropylcellulose) (HPC)
[17] = dose: 400.0 mg/kg/injection, schedule: Q04DX003 (ip), vehicle: Klucel (hydroxypropylcellulose) (HPC)

Measured: T/C

O=C1CN=C(c2ccccc2Cl)c2cc(Cl)ccc2N1
inactive: dose: 0.01 mg/kg/injection, schedule: Q01DX009 (ip), vehicle: Klucel (hydroxypropylcellulose) (HPC) 100 % of control | dose: 0.02 mg/kg/injection, schedule: Q01DX009 (ip), vehicle: Klucel (hydroxypropylcellulose) (HPC) 86 % of control | dose: 0.04 mg/kg/injection, schedule: Q01DX009 (ip), vehicle: Klucel (hydroxypropylcellulose) (HPC) 86 % of control | dose: 0.09 mg/kg/injection, schedule: Q01DX009 (ip), vehicle: Klucel (hydroxypropylcellulose) (HPC) 86 % of control | dose: 0.39 mg/kg/injection, schedule: Q01DX009 (ip), vehicle: Klucel (hydroxypropylcellulose) (HPC) 91 % of control | dose: 0.78 mg/kg/injection, schedule: Q01DX009 (ip), vehicle: Klucel (hydroxypropylcellulose) (HPC) 88 % of control | dose: 1.56 mg/kg/injection, schedule: Q01DX009 (ip), vehicle: Klucel (hydroxypropylcellulose) (HPC) 86 % of control | dose: 3.12 mg/kg/injection, schedule: Q01DX009 (ip), vehicle: Klucel (hydroxypropylcellulose) (HPC) 89 % of control | [1] 90 % of control | dose: 0.6 micrograms/kg/injection, schedule: Q01DX009 (ip), vehicle: Klucel (hydroxypropylcellulose) (HPC) 111 % of control | dose: 1.2 micrograms/kg/injection, schedule: Q01DX009 (ip), vehicle: Klucel (hydroxypropylcellulose) (HPC) 104 % of control | dose: 2.5 micrograms/kg/injection, schedule: Q01DX009 (ip), vehicle: Klucel (hydroxypropylcellulose) (HPC) 105 % of control | dose: 5.0 micrograms/kg/injection, schedule: Q01DX009 (ip), vehicle: Klucel (hydroxypropylcellulose) (HPC) 95 % of control | dose: 10.0 micrograms/kg/injection, schedule: Q01DX009 (ip), vehicle: Klucel (hydroxypropylcellulose) (HPC) 112 % of control

O=C(CCCc1ccc(N(CCCl)CCCl)cc1)Nc1ncccn1
inactive: dose: 3.0 mg/kg/injection, schedule: Q01DX009 (ip), vehicle: Klucel (hydroxypropylcellulose) (HPC) 104 % of control | dose: 6.0 mg/kg/injection, schedule: Q01DX009 (ip), vehicle: Klucel (hydroxypropylcellulose) (HPC) 109 % of control | [2] 109 % of control

CC(CN=Cc1ccccc1[O-])N=Cc1ccccc1[O-].[O]=[V] (centres undefined)
inactive: dose: 2.5 mg/kg/injection, schedule: Q01DX009 (ip), vehicle: saline with Tween-80 90 % of control | dose: 5.0 mg/kg/injection, schedule: Q01DX009 (ip), vehicle: saline with Tween-80 90 % of control | dose: 5.0 mg/kg/injection, schedule: Q04DX003 (ip), vehicle: saline with Tween-80 97 % of control | dose: 10.0 mg/kg/injection, schedule: Q04DX003 (ip), vehicle: saline with Tween-80 92 % of control

O=C(O)C1Cc2c([nH]c3ccccc23)C(CCCCO)N1 (centres undefined)
inactive: dose: 6.25 mg/kg/injection, schedule: Q01DX009 (ip), vehicle: Klucel (hydroxypropylcellulose) (HPC) 99 % of control | [3] 101 % of control | [4] 107 % of control

CN(C)CCN1c2ccccc2Sc2ccccc21
inactive: [5] 110 % of control | [6] 97 % of control | [7] 92 % of control | [8] 97 % of control | dose: 100.0 mg/kg/injection, schedule: Q01DX009 (ip), vehicle: saline 92 % of control

CCOC(C)C(/C=N/NC(N)=S)=NNC(N)=S (centres undefined)
inactive: [9] 90 % of control

CCCCNC(C)(C)C(SS)c1ccco1 (centres undefined)
inactive: dose: 3.0 mg/kg/injection, schedule: Q01DX009 (ip), vehicle: alcohol 107 % of control | dose: 6.0 mg/kg/injection, schedule: Q01DX009 (ip), vehicle: alcohol 107 % of control | dose: 12.0 mg/kg/injection, schedule: Q01DX009 (ip), vehicle: alcohol 112 % of control | dose: 37.5 mg/kg/injection, schedule: Q01DX009 (ip), vehicle: saline 87 % of control | dose: 55.0 mg/kg/injection, schedule: Q01DX009 (ip), vehicle: saline 106 % of control

CCOc1ccc(/C=N/NS(=O)(=O)c2ccc(C)cc2)cc1
inactive: [10] 96 % of control | [1] 90 % of control | [11] 90 % of control

CC(=O)n1cc(F)c(=O)[nH]c1=O
inactive: dose: 5.3 mg/kg/injection, schedule: Q01DX009 (ip), vehicle: Klucel (hydroxypropylcellulose) (HPC) 91 % of control | dose: 8.0 mg/kg/injection, schedule: Q01DX009 (ip), vehicle: Klucel (hydroxypropylcellulose) (HPC) 91 % of control | [2] 104 % of control | dose: 18.0 mg/kg/injection, schedule: Q01DX009 (ip), vehicle: Klucel (hydroxypropylcellulose) (HPC) 120 % of control | dose: 27.0 mg/kg/injection, schedule: Q01DX009 (ip), vehicle: Klucel (hydroxypropylcellulose) (HPC) 114 % of control

CC(C)CC(NC(=O)C(C)NC(=O)CN)C(=O)O (stereo not drawn) (H-Gly-Ala-Leu-OH; configuration not given here)
inactive: [9] 97 % of control | [12] 96 % of control | [13] 98 % of control | dose: 400.0 mg/kg/injection, schedule: Q01DX009 (ip), vehicle: saline with Tween-80 103 % of control

C=C(C)C1C2CC3(C)C4(CO4)C4OC4C3(O)C1C(=O)O2 (centres undefined)
inactive: dose: 0.07 mg/kg/injection, schedule: Q01DX009 (ip), vehicle: Klucel (hydroxypropylcellulose) (HPC) 102 % of control | dose: 0.15 mg/kg/injection, schedule: Q01DX009 (ip), vehicle: Klucel (hydroxypropylcellulose) (HPC) 104 % of control | dose: 0.3 mg/kg/injection, schedule: Q01DX009 (ip), vehicle: Klucel (hydroxypropylcellulose) (HPC) 106 % of control | dose: 0.6 mg/kg/injection, schedule: Q01DX009 (ip), vehicle: Klucel (hydroxypropylcellulose) (HPC) 98 % of control | dose: 1.2 mg/kg/injection, schedule: Q01DX009 (ip), vehicle: Klucel (hydroxypropylcellulose) (HPC) 101 % of control

c1ccc2sc(SSN3CCOCC3)nc2c1
inactive: [3] 97 % of control | [14] 94 % of control

COc1ccc(C2c3cc4c(c(OC)c3CC3OCC(=O)C32)OCO4)cc1OC (centres undefined)
inactive: [3] 102 % of control | [4] 102 % of control | [14] 117 % of control

CN(C)N=Nc1c(Cl)cc(Cl)cc1C(N)=O
inactive: [12] 119 % of control | [13] 115 % of control

CNC(=O)Nc1cccc2c(=O)[nH][nH]c(=O)c12
inactive: [15] 112 % of control | [16] 102 % of control | [17] 91 % of control

C1=C(c2ccccc2)CCCC1
inactive: [15] 90 % of control | [16] 93 % of control | [17] 103 % of control

CC1=NN(c2ccccc2)C(=O)C1N=Nc1ccccc1S(=O)(=O)O (centres undefined)
inactive: [9] 90 % of control

CC(C)C(C(=O)c1ccccc1)C(c1ccccc1)c1ccccc1 (centres undefined)
inactive: dose: 100.0 mg/kg/injection, schedule: Q04DX003 (ip), vehicle: other 92 % of control | dose: 200.0 mg/kg/injection, schedule: Q04DX003 (ip), vehicle: other 94 % of control

N#CC(CC(=O)c1ccc2c(c1)OCO2)c1ccc2c(c1)OCO2 (centres undefined)
inactive: [10] 105 % of control | [1] 101 % of control | [11] 94 % of control

CCCCCCCCCCCC(=O)[O][Sn]([CH2]c1ccccc1)([CH2]c1ccccc1)[CH2]c1ccccc1
inactive: dose: 1.25 mg/kg/injection, schedule: Q04DX003 (ip), vehicle: other 107 % of control | dose: 2.5 mg/kg/injection, schedule: Q04DX003 (ip), vehicle: other 105 % of control | dose: 5.0 mg/kg/injection, schedule: Q04DX003 (ip), vehicle: other 95 % of control

O=C1CC(NC(=O)OCc2ccccc2)C(=O)O1 (centres undefined)
inactive: dose: 100.0 mg/kg/injection, schedule: Q01DX009 (ip), vehicle: alcohol 111 % of control | dose: 200.0 mg/kg/injection, schedule: Q01DX009 (ip), vehicle: alcohol 94 % of control

CN(C)CCOCCOC(=O)N1c2ccccc2Sc2ccccc21
inactive: [5] 102 % of control | [6] 112 % of control | [7] 116 % of control | [8] 109 % of control

Cc1c(O)c2c(c(O)c1Cc1ccc(CN)cc1)C(=O)c1ccccc1C2=O
inactive: dose: 0.78 mg/kg/injection, schedule: Q01DX009 (ip), vehicle: water 109 % of control | dose: 1.56 mg/kg/injection, schedule: Q01DX009 (ip), vehicle: water 109 % of control | dose: 3.13 mg/kg/injection, schedule: Q01DX009 (ip), vehicle: water 98 % of control | dose: 6.25 mg/kg/injection, schedule: Q01DX009 (ip), vehicle: water 93 % of control
